Measurements: US11478470B2, “Combination product of Bcl-2 inhibitor or Bcl-2/Bcl-xL dual inhibitor and BTK inhibitor and use thereof in the prevention and/or treatment of diseases” (ASCENTAGE PHARMA (SUZHOU) CO., LTD., priority 2018, dated 2022)
Where two headings read alike, the source gives them in different places.

Columns and labels:
[1] = test system: DOHH2^R-ibrutinib cells; test: CellTiter-Glo cell viability assay, ibrutinib-resistant DOHH2R-ibrutinib cells; assay type: cell-based, human; settings: for IC50: Homo sapiens, ibrutinib-resistant cells, CellTiter-Glo, 24 or 72 hours, read-out: IC50 value to the DOHH2^R-ibrutinib cell line (cell viability)
Experimental: (§1) DOHH2 cells were cultured in RPM11640 medium containing 10% calf serum, 1% antibiotics and 5 ug/ml verapamil (calcium ion channel blocker), and ibrutinib was added at a gradually increasing concentration from 0.5 uM to 10 uM. After exposure for about three months, a ibrutinib-resistant DOHH2R cell line was obtained, also referred to as DOHH2^R-ibrutinib. After DOHH2^R-ibrutinib was stabilized, it was continued to be cultured in culture medium containing 10 uM Ibrutinib to maintain its resistance. Ibrutinib is absent only in the susceptibility test with Compound 6 or 88.
(§2) Relative light units (RLU) were determined by a microplate reader (BioTek, Synergy H1 MF, USA). […] IC50 values were calculated using GraphPad Prism. IC50 was expressed as mean±standard deviation (SD).

[2] = test system: DOHH2 cells; test: CellTiter-Glo cell viability assay, DOHH2 cells (Example 11); assay type: cell-based; settings: Homo sapiens, DOHH-2, DOHH2 parental cells
Experimental: as §1, §2

[3] = test system: OCI-LY1 cells; test: Flow cytometry analysis of apoptosis (Annexin V/PI), OCI-LY1; assay type: cell-based, human; settings: OCI-LY1, 24 hours; 15 nM Compound 6, 150 nM ibrutinib, or the combination
Experimental: (§3) Apoptosis was evaluated with AnnexinV/propidium iodide (PI) dyes (BD Biosciences, Cat. 556547) according to manufacturer's instructions. Briefly, cells were seeded in 24-well plates at a density 2×10^5 cells/well, and treated with Compound 6 and/or ibrutinib (Selleck) to induce apoptosis. After 24 h, cells were collected, washed twice with PBS (pH 7.4), and stained with Annexin-V and propidium iodide (PI) for 15 mins. Stained samples were analyzed using flow cytometer Attune NxT (Life technologies).
(§4) In the experiment, the combination treatment with Compound 6 and ibrutinib was evaluated for its ability of apoptosis induction on DOHH2 and OCI-LY1 cells by co-staining of Annexin-V/Propidium iodide (PI) followed by flow cytometry analysis (FIG. 7A). […] Flow cytometry analysis of apoptotic cells by Annexin V and propidium iodide (PI) co-staining in DOHH-2 and OCI-LY1 cell lines treated with 10 nM (DOHH-2) or 15 nM (OCI-LY1) Compound 6, 100 nM (DOHH-2) or 150 nM (OCI-LY1) ibrutinib, or the combination for 24 hours. Three independent experiments were conducted and the representative results are shown (7A). The percentages of Annexin V-positive, PI-positive, or double positive DOHH-2 (7B) and OCI-LY1 (7C) cells are plotted as bar charts and shown as mean±SEM (n=3) (**p<0.01, ***p<0.001).

[4] = test system: human DOHH2 (FL) xenograft tumor; assay type: in vivo; settings: Cpd. 6 100 mg/kg, Ibrutinib 25 mg/kg; for TGI (%) on day 32 after administration: TGI = 100 − T/C%
Experimental: (§5) All animal experiments were strictly in accordance with the laboratory animal use and management practices of GenePharma Co., Ltd. and Ascentage Pharma Group Co., Ltd. The calculation of relevant parameters referred to the Chinese CFDA “Guidelines for Non-Clinical Research Techniques of Cytotoxic Antitumor Drugs”.
(§6) Animal body weight and tumor size were measured twice a week during the experiment. Tumor growth was observed periodically, and the animals were randomly divided into groups according to tumor size and mouse body weight when the tumors grew to an average volume of 100-200 mm^3. The conditions and death of the animals were observed every day. Routine monitoring included the effects of tumor growth and treatment on normal animal behaviors, including activity, feeding and drinking situations, weight gain or loss, eyes, coat and other abnormalities in the experimental animals. The deaths and clinical symptoms observed during the experiment were recorded in the raw data. The entire operations of administration, measurement of mouse body weight and tumor volume were performed in a clean bench. Plasma and tumor tissues were collected, weighed and photographed after the end of the last administration according to the experimental protocol. Plasma and tumor samples were frozen and stored at −80° C.
(§7) Tumor volume (TV) was calculated as: TV=a×b^2/2, in which a and b represented the length and width of the tumor as measured, respectively. The relative tumor volume (RTV) was calculated as: RTV=Vt/V1, in which V1 was the tumor volume at the time of grouping and administration, and Vt was the tumor volume measured on a day after administration. […] Change of body weight %=(measured body weight−body weight at the time of grouping)/body weight at the time of grouping×100%.
(§8) If the synergy factor was >1, there was a synergistic effect; if the synergistic factor=1, there was an additive effect; if the synergistic factor <1, there was an antagonistic effect.

[5] = test system: DOHH-2 cells; test: Flow cytometry analysis of apoptosis (Annexin V/PI), DOHH-2; assay type: cell-based, human; settings: DOHH-2, 24 hours; 10 nM Compound 6, 100 nM ibrutinib, or the combination
Experimental: as §3, §4

[6] = test system: human OCI-LY1 (DLBCL) xenograft tumor; assay type: in vivo; settings: Cpd. 6 50 mg/kg, Ibrutinib 20 mg/kg; for T/C on day 36 after administration: given as fraction
Experimental: (§9) . All animal experiments were strictly in accordance with the laboratory animal use and management practices of GenePharma Co., Ltd. and Ascentage Pharma Group Co., Ltd. The calculation of relevant parameters referred to the Chinese CFDA “Guidelines for Non-Clinical Research Techniques of Cytotoxic Antitumor Drugs”.
as §6
(§10) Tumor volume (TV) was calculated as: TV=a×b^2/2, in which a and b represented the length and width of the tumor as measured, respectively. The relative tumor volume (RTV) was calculated as: RTV=Vt/V1, in which V1 was the tumor volume at the time of grouping and administration, and Vt was the tumor volume measured on a day after administration. The evaluation index of anti-tumor activity was the relative tumor proliferation rate T/C (%), which was calculated as: relative tumor proliferation rate T/C (%)=(TRTV/CRTV)×100%, in which TRTV was the RTV of the treatment group, CRTV was the RTV of the vehicle control group; tumor remission rate (%) was calculated as: (the number of SD (stable disease), PR (tumor partial regression) and CR (tumor complete regression) in the tumor-bearing mice after treatment)/the total number of mice in the group×100%. Change of body weight %=(measured body weight−body weight at the time of grouping)/body weight at the time of grouping×100%.
(§11) ; The synergistic analysis was performed by the following formula: synergy factor=((A/C)×(B/C))/(AB/C); A=RTV value of the group administered with A only; B=RTV value of the group administered with B only; C=RTV value of the vehicle control group; AB=RTV value of the group administered with A and B in combination (Clarke R. Issues in experimental design and endpoint analysis in the study of experimental cytotoxic agents in vivo in breast cancer and other models [J]. Breast Cancer Research & Treatment, 1997, 46(2-3): 255-278). If the synergy factor was >1, there was a synergistic effect; if the synergistic factor=1, there was an additive effect; if the synergistic factor <1, there was an antagonistic effect.

[7] = test system: human DOHH2 (FL) xenograft tumor; assay type: in vivo; settings: Cpd. 6 50 mg/kg, Ibrutinib 20 mg/kg
Experimental: as §9, §6, §10, §11

[8] = test system: human OCI-LY1 (DLBCL) xenograft tumor; assay type: in vivo; settings: for RTV on the 43rd day after administration (mean ± standard error) / T/C (%) on day 43 after administration: Cpd. 6 100 mg/kg p.o. qd, Ibrutinib 15 mg/kg i.v. qd, day 43; for TGI (%) on day 43 after administration: TGI = 100 − T/C%
Experimental: as §5, §6, §7, §8
In short, when the average tumor volume reached approximately 90 mm^3, grouping and administration started. Ibrutinib was administered at a dose of 15 mg/kg, i.v., qd, from the day of grouping, for 3 weeks. […] On the 13th day after grouping, the administration was stopped and the observation period started.

[9] = test system: various hematological malignancies cell lines including those from DLBCL and FL; test: Anti-proliferative activity as single agent in hematological malignancies cell lines (data not shown); assay type: cell-based
[10] = Cpd. 6 100 mg/kg, Ibrutinib 15 mg/kg
[11] = Cpd. 6 100 mg/kg, Ibrutinib 15 mg/kg, including CR, PR and SD
[12] = Cpd. 6 100 mg/kg, Ibrutinib 15 mg/kg, mice per group
[13] = Cpd. 6 100 mg/kg, Ibrutinib 15 mg/kg, mice per group, listed as Cpd. 6

Structure (SMILES)	IC50 [1]	IC50 [2]	apoptosis induction (Annexin V / PI positive cells) [3]	TGI (%) on day 32 after administration [4]	RTV on day 32 after administration (mean ± standard error) [4]	T/C (%) on day 32 after administration [4]	apoptosis induction (Annexin V / PI positive cells) [5]	RTV on day 36 after administration (mean ± standard error) [6]	T/C on day 36 after administration [6]	RTV on day 35 after administration (mean ± standard error) [7]	T/C (%) on day 35 after administration [7]	RTV on the 43rd day after administration (mean ± standard error) [8]	T/C (%) on day 43 after administration [8]	TGI (%) on day 43 after administration [8, 10]	RTV on day 50 after administration (mean ± standard error) [8, 10]	remission rate % on day 43 after administration [8, 11]	remission rate % on day 50 after administration [8, 11]	Tumor status on day 43 after administration: CR (tumor complete regression) [8, 12]	Tumor status on day 43 after administration: PR (tumor partial regression) [8, 12]	Tumor status on day 50 after administration: CR [8, 12]	also measured
CC1(C)CCC(CN2CCN(c3ccc(C(=O)NS(=O)(=O)c4ccc(NCC5CCOCC5)c([N+](=O)[O-])c4)c(Oc4cnc5[nH]ccc5c4)c3)CC2)=C(c2ccc(Cl)cc2)C1 [ABT-199, reference compound]	1190 nM	51.1 nM																			
O=C(NS(=O)(=O)c1ccc(NC[C@H]2COCCO2)c([N+](=O)[O-])c1)c1ccc(N2CCN(CC3=C(c4ccc(Cl)cc4)CC4(CCC4)CC3)CC2)cc1Oc1cnc2[nH]ccc2c1 [Compound 6, (S)-N-((4-(((1,4-dioxan-2-yl)methyl)amino)-3-nitrophenyl)sulfonyl)-2-((1H-pyrrolo[2,3-b]pyridin-5-yl)oxy)-4-(4-((6-(4-chlorophenyl)spiro[3.5]non-6-en-7-yl)methyl)piperazin-1-yl)benzamide]	648 nM	48.4 nM	slightly enhanced apoptotic activity	81%	2.4 ± 0.2	19%	slightly enhanced apoptotic activity	2.2 ± 0.4	0.090	7.5 ± 0.7	44.40%	1.03 ± 0.33	4%	96%	2.64 ± 0.55	20%	( 10% )	1/5	1/5	0/5 CR,	RTV on day 43 after administration ([6]; day 43): 7.1 ± 0.4; remission rate % on day 68 after administration [8, 11]: PR ( 0% ); remission rate % on day 43 after administration ([8]; Cpd. 6 100 mg/kg, Ibrutinib 15 mg/kg, including CR, PR and SD, listed as Cpd. 6): ( 100% ); Tumor status on day 50 after administration: PR [8, 12]: 1/5 PR; Tumor status on day 68 after administration: CR [8, 12]: 0/5 CR, 0/5; Tumor status on day 68 after administration: PR [8, 12]: 0/5 CR, 0/5; Tumor status on day 43 after administration: CR (tumor complete regression) [8, 13]: 1/5 CR, 1/5; Tumor status on day 43 after administration: PR (tumor partial regression) [8, 13]: 1/5 CR, 1/5; anti-proliferative activities as a single agent compared with ABT-199 [9]: comparable if not better than ABT-199
Cc1c(S(C)(=O)=O)c(-c2cc(F)cc(N3CCN(c4ccc(NS(=O)(=O)c5ccc(N[C@H](CCN6CCC(C(=O)O)CC6)CSc6ccccc6)c(S(=O)(=O)C(F)(F)F)c5)cc4)CC3)c2)c(-c2ccc(Cl)cc2)n1C(C)C [Compound 88, (R)-1-(3-(4-(N-(4-(4-(3-(2-(4-chlorophenyl)-1-isopropyl-5-methyl-4-(methylsulfonyl)-1H-pyrrol-3-yl)-5-fluorophenyl)piperazin-1-yl)phenyl)-sulfamoyl)-2-(trifluoromethylsulfonyl)phenylamino)-4-(phenylthio)butyl)piperidine-4-carboxylic acid]	17 nM																				time to cell death ([1]; DOHH2^R-ibrutinib cells): ≤ 24 h
C=CC(=O)N1CCC[C@@H](n2nc(-c3ccc(Oc4ccccc4)cc3)c3c(N)ncnc32)C1 [Ibrutinib, reference compound]	12200 nM	73.5 nM	limited apoptosis activity	52%	6.1 ± 0.8	48%	limited apoptosis activity	20.5 ± 2.1	0.810	11.4 ± 1.5	67.7%	15.9 ± 7.63	58%	42%	32.1 ± 1137	PR ( 0% )	( 0% )	0/5 CR, 0/5	0/5 CR, 0/5	0/5 CR,	increase of IC50 in DOHH2^R-ibrutinib versus DOHH2 cells [1]: 160 fold; Tumor status on day 50 after administration: PR [8, 12]: 0/5 PR
